The text below walks through data of patent publication US7429578B2, “Tricyclic inhibitors of poly(ADP-ribose) polymerases” (Agouron Pharmaceuticals, Inc., priority 1999, dated 2008).

pKi: −log10 of the molar value. “And” between values parts separate entries of the source, which are not always exact repeats. Equal values may be shown once.

One data set deals with purified PARP protein (Homo sapiens, UniProt P09874). Description: PARP enzyme inhibition assay. The data set is classed as biochemical. Conditions: [32P]NAD+ incorporation, 500 μM NAD+, 25° C.; two values in a cell = tested twice; read-out: Inhibition Constant Ki.
Chain of purified PARP protein (P09874 whole entry): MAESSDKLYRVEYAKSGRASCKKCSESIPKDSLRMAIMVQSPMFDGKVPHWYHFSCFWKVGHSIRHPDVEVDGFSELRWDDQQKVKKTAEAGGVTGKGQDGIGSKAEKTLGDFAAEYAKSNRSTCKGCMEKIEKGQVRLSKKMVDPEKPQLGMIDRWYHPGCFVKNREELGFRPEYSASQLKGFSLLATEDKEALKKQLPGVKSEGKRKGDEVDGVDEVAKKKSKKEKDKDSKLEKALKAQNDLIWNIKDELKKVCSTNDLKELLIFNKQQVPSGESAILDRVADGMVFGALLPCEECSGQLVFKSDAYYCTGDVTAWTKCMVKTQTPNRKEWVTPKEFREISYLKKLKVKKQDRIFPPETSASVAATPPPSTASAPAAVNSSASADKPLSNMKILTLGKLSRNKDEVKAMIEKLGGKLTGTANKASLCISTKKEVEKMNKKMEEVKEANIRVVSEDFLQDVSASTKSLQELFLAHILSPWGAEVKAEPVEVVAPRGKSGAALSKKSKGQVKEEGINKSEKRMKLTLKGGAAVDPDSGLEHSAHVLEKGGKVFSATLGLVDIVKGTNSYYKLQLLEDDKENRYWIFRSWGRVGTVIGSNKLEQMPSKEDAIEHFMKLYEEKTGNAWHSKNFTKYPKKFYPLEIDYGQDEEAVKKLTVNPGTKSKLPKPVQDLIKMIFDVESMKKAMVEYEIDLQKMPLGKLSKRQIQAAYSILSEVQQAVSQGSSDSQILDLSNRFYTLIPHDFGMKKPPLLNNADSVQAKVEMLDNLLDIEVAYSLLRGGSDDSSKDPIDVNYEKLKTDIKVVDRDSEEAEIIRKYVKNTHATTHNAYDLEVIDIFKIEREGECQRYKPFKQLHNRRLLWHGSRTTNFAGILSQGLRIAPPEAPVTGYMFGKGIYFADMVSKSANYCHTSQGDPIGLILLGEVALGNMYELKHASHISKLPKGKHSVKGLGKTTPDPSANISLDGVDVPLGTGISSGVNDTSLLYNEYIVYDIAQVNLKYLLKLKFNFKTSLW

By pKi is commonly meant the negative decadic logarithm of the Ki, by convention in mol/L. What is called melting point is the temperature of the solid-liquid transition. `COc1ccccc1-c1[nH]c2cccc3c2c1CCNC3=O` [III, 2-(2-Methoxy-phenyl)-1,3,4,5-tetrahydro-azepino[5,4,3-cd]indol-6-one] gave a melting point of 254 to 255 °C. Also, the pKi on purified PARP protein is 7.40.

Compound `CC1=NNC(=O)c2cccc3[nH]cc1c23` [QQ, 1,5-Dihydro-3-methyl-[1,2]diazepino[4,5,6-cd]-indol-6-one] returned a melting point of 335 to 336 °C. Further, on purified PARP protein, the pKi was 8.26 and 8.35.

With `O=C1NCCc2c(-c3ccccc3Cl)[nH]c3cccc1c23` [Compound 38, 2-(2-Chlorophenyl)-1,3,4,5-tetrahydro-azepino[5,4,3-cd]indol-6-one], the melting point was 275 °C (dec.). Moreover, the pKi at purified PARP protein was 8.08.

Regarding `O=C1NCCc2c(-c3ccc(Br)cc3)[nH]c3cccc1c23` [Compound 34, 2-(4-Bromophenyl)-1,3,4,5-tetrahydro-azepino[5,4,3-cd]indol-6-one], the melting point is 160 °C (dec.). For the same compound, the pKi on purified PARP protein was 8.41.

`O=C1NCCc2c(-c3cccc(CN4CCCCC4)c3)[nH]c3cccc1c23` [SS] displayed a melting point of 235 to 237 °C. The pKi at purified PARP protein was 7.85.

`CCCCCCCCOC(=O)c1[nH]c2cccc3c2c1CCNC3=O` [FFF, 6-Oxo-3,4,5,6-tetrahydro-1H-azepino[5,4,3-cd]indole-2-carboxylic acid octyl ester] showed a melting point of 170 to 171 °C. In addition, the pKi at purified PARP protein was 6.90.

For the compound `CC(C)NC(=O)c1[nH]c2cccc3c2c1CCNC3=O` [PPPP, 6-Oxo-1,3,4,5-tetrahydro-1H-azepino[5,4,3-cd]indole-2-carboxylic acid isopropylamide], the melting point is 261 to 262 °C (dec.). Also, the pKi at purified PARP protein was 7.49.

In turn, `CC(C)(C)c1ccc(-c2[nH]c3cccc4c3c2CCNC4=O)cc1` [Compound 36, 2-(4-tert-Butyl-phenyl)-1,3,4,5-tetrahydro-azepino[5,4,3-cd]indol-6-one] had a melting point of 243 to 244 °C. The pKi at purified PARP protein is 7.54.

Regarding `O=C1NCCc2c(-c3cc(C(F)(F)F)cc(C(F)(F)F)c3)[nH]c3cccc1c23` [Compound 33, 2-(3,5-bis-Trifluoromethyl-phenyl)-1,3,4,5-tetrahydro-azepino[5,4,3-cd]indol-6-one], the melting point was 230 °C (dec.). The pKi at purified PARP protein was 6.64.

With `O=C1NCCc2c(-c3cccc(-c4ccccc4)c3)[nH]c3cccc1c23` [RRR, 2-Biphenyl-3-yl-1,3,4,5-tetrahydro-azepino[5,4,3-cd]indol-6-one], the melting point was in the range of 160 to 163 °C. Further, the pKi on purified PARP protein was 7.64.

Consider `Cn1cc2c3c(cccc31)C(=O)NCC2` [Compound 19, 1-N-Methyl-3,4,5,6-tetrahydro-1H-azepino[5,4,3-cd]indol-6-one], for which the melting point was in the range of 194 to 195 °C. For the same compound, the negative logarithm of the Ki (pKi) at purified PARP protein was 7.21.

`O=C1NCCc2c(-c3cccc(Cl)c3)[nH]c3cccc1c23` [Compound 40, 2-(3-Chlorophenyl)-1,3,4,5-tetrahydro-azepino[5,4,3-cd]indol-6-one] displayed a melting point of 147 to 149 °C. The pKi at purified PARP protein is 8.28.

Compound `CC(=O)Nc1cccc(-c2[nH]c3cccc4c3c2CCNC4=O)c1` [Compound TT, N-[3-(6-Oxo-3,4,5,6-tetrahydro-1H-azepino[5,4,3-cd]indol-2-yl)-phenyl]-acetamide] had a melting point of 300.5 to 302 °C. Moreover, the pKi on purified PARP protein is 7.91 and 8.38.

The compound `O=C1NCCc2c(-c3ccccc3CCCO)[nH]c3cccc1c23` [BBB, 2-[2-(3-Hydroxy-propyl)-phenyl]-1,3,4,5-tetrahydro-azepino[5,4,3-cd]indol-6-one] showed a melting point of 233.5 to 234.5 °C. Further, the pKi on purified PARP protein is 7.70.

In the case of `O=C(O)c1ccc(-c2[nH]c3cccc4c3c2CCNC4=O)cc1` [WWW, 4-(6-Oxo-3,4,5,6-tetrahydro-1H-azepino[5,4,3-cd]indol-2-yl)-benzoic Acid], the melting point was 345.5 to 346.5 °C (dec.). For the same compound, at purified PARP protein, the pKi was 6.58.

In the case of `O=C1NCCc2c(CCc3ccccc3)[nH]c3cccc1c23` [Compound 37, 2-Phenethyl-1,3,4,5-tetrahydro-azepino[5,4,3-cd]indol-6-one], the melting point lay within 207 to 208 °C. In addition, the pKi at purified PARP protein is 7.62.

`O=C1NCCc2c(-c3ccc4ccccc4c3)[nH]c3cccc1c23` [XX, 2-Naphthalen-2-yl-1,3,4,5-tetrahydro-azepino[5,4,3-cd]indol-6-one] showed a melting point of 261 to 262 °C. Moreover, the pKi on purified PARP protein is 8.34.

For the compound `CNC(=O)c1[nH]c2cccc3c2c1CCNC3=O` [OOO, 6-Oxo-3,4,5,6-tetrahydro-1H-azepino[5,4,3-cd]indole-2-carboxylic acid methylamide], the melting point was 321 to 322 °C (dec.). Moreover, the pKi at purified PARP protein was 7.85.

As to `CS(=O)(=O)c1ccc(-c2[nH]c3cccc4c3c2CCNC4=O)cc1` [GGGG, 2-(4-Methanesulfonyl-phenyl)-1,3,4,5-tetrahydro-azepino[5,4,3-cd]indol-6-one], the melting point was 308 to 309 °C (dec.). The pKi at purified PARP protein was 8.21.

In the case of `C#CCNC(=O)c1[nH]c2cccc3c2c1CCNC3=O` [OOOO, 6-Oxo-1,3,4,5-tetrahydro-1H-azepino[5,4,3-cd]indole-2-carboxylic acid prop-2-ynylamide], the melting point fell in the range of 191 to 192 °C. In addition, the pKi on purified PARP protein was 7.89.

On to `COC(=O)CCc1ccccc1-c1[nH]c2cccc3c2c1CCNC3=O` [AAA, 3-[2-(6-Oxo-3,4,5,6-tetrahydro-1H-azepino[5,4,3-cd]indol-2-yl)-phenyl]-propionic acid methyl ester], for which the melting point lay within 201 to 201.5 °C. In addition, at purified PARP protein, the pKi was 7.94.

`O=C1NCCc2c(-c3ccsc3)[nH]c3cccc1c23` [CCCC, 2-Thiophen-3-yl-1,3,4,5-tetrahydro-azepino[5,4,3-cd]indol-6-one] yielded a melting point of 255 to 256 °C. For the same compound, the pKi on purified PARP protein is 8.32.

Take `O=C1NCCc2c(-c3cc4ccccc4o3)[nH]c3cccc1c23` [Compound 32, 2-Benzofuran-2-yl-1,3,4,5-tetrahydro-azepino[5,4,3-cd]indol-6-one]: the melting point is 207 °C (dec.). For the same compound, the pKi on purified PARP protein is 7.95.

`C[S+]([O-])c1ccc(-c2[nH]c3cccc4c3c2CCNC4=O)cc1` (stereo not drawn) [FFFF, 2-(4-Methanesulfinyl-phenyl)-1,3,4,5-tetrahydro-azepino[5,4,3-cd]indol-6-one]: the melting point is 316 to 317 °C (dec.). Moreover, the pKi on purified PARP protein was 8.33.

On to `Nc1cccc(C#Cc2[nH]c3cccc4c3c2CCNC4=O)c1` [UUU, 2-(3-Amino-phenylethynyl)-1,3,4,5-tetrahydro-azepino[5,4,3-cd]indol-6-one], for which the melting point is 261 to 262 °C (dec.). Further, the pKi on purified PARP protein was 7.94.

For the compound `O=C1NCCc2c(-c3ccc(C(F)(F)F)cc3)[nH]c3cccc1c23` [Compound 31, 2-(4-Trifluoromethyl-phenyl)-1,3,4,5-tetrahydro-azepino[5,4,3-cd]indol-6-one], the melting point lay in the range of 208 to 209 °C. The pKi on purified PARP protein was 8.30.

For `O=C1NCCc2c(-c3ccc(O)cc3)[nH]c3cccc1c23` [CCC, 2-(4-Hydroxy-phenyl)-1,3,4,5-tetrahydro-azepino[5,4,3-cd]indol-6-one], the melting point was 300 °C (dec.). Also, the pKi at purified PARP protein was 8.14.
